# Calls of active or inactive are those of the source. The rule behind the calls is not given here.
# Legend:
# [1] = target: T1, Protein deacetylase HDAC6 (Mus musculus, UniProt Q9Z2V5); assay: Inhibition of recombinant mouse HDAC6 expressed in HEK293T cells co-expressing mouse HDA2 using Ac-KGLGK(Ac)-MCA as substrate after 30 mins in presence of DTT by fluorescence assay
# T1 sequence (Q9Z2V5 whole entry): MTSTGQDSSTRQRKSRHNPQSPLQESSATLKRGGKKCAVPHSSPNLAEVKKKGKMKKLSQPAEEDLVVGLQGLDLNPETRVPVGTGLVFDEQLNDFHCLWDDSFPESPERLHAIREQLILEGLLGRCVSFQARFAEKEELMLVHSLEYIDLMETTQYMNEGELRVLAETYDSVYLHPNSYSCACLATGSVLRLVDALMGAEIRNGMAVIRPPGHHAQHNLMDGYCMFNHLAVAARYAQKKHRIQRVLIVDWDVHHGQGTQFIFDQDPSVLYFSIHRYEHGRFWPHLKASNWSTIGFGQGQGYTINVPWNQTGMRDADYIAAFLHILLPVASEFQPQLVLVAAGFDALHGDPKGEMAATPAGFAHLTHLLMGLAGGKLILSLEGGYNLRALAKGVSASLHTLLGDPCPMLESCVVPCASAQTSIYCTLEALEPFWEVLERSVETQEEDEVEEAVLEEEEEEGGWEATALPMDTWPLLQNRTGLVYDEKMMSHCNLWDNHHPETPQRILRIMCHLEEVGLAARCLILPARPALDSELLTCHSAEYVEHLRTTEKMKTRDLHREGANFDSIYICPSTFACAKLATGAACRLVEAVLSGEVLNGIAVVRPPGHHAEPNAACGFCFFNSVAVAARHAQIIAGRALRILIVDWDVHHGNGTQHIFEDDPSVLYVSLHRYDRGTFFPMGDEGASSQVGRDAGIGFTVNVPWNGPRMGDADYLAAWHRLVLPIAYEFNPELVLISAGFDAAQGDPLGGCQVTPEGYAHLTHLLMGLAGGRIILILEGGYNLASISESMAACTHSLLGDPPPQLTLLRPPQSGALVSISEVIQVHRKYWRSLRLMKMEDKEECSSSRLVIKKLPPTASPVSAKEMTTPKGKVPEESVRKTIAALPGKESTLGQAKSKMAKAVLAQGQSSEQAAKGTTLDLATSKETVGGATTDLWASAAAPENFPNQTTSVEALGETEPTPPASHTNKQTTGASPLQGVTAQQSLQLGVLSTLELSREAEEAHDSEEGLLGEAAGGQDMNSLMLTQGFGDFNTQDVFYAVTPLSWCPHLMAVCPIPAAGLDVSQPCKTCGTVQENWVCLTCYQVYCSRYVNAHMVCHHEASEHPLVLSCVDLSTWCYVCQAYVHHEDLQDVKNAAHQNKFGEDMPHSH
# Histone deacetylase 1 [2] = target: T2, Histone deacetylase 1 (Homo sapiens, UniProt Q13547); assay: Inhibition of recombinant human HDAC1 expressed in HEK293T cells using Ac-KGLGK(Ac)-MCA as substrate after 30 mins in presence of DTT by fluorescence assay
# T2 sequence (Q13547 whole entry): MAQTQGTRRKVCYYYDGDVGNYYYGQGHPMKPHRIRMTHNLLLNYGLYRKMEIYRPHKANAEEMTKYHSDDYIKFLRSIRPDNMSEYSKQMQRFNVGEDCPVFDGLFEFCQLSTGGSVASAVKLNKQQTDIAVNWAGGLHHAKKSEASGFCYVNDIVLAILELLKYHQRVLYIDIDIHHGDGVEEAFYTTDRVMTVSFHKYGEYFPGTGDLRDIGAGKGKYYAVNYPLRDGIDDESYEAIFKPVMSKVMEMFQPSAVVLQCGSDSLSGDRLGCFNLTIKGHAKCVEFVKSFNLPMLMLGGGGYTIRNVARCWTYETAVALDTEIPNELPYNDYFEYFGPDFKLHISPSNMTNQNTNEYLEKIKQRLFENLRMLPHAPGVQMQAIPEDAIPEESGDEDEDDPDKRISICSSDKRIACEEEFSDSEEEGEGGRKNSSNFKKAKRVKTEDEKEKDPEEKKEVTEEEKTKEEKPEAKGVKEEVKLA
# MCF7 = assay: Growth inhibition of human MCF7 cells after 48 hrs by sulforhodamine B-based colorimetric assay; format: functional, cell-based; details: MCF7, 48 h; for GI50: read-out: GI50
# DU-145 = assay: Growth inhibition of human DU145 cells after 48 hrs by sulforhodamine B-based colorimetric assay; format: functional, cell-based; details: DU-145, 48 h; for GI50: read-out: GI50
# HCT-116 = assay: Growth inhibition of human HCT116 cells after 48 hrs by sulforhodamine B-based colorimetric assay; format: functional, cell-based; details: HCT-116, 48 h; for GI50: read-out: GI50
# [3] = target: T3, DNA topoisomerase 2-alpha (Homo sapiens, UniProt P11388); assay: Inhibition of human placenta topoisomerase 2alpha assessed as reduction in pBR322 supercoiled DNA relaxation after 30 mins by ethidium bromide staining based agarose gel electrophoresis
# T3 sequence (P11388 whole entry): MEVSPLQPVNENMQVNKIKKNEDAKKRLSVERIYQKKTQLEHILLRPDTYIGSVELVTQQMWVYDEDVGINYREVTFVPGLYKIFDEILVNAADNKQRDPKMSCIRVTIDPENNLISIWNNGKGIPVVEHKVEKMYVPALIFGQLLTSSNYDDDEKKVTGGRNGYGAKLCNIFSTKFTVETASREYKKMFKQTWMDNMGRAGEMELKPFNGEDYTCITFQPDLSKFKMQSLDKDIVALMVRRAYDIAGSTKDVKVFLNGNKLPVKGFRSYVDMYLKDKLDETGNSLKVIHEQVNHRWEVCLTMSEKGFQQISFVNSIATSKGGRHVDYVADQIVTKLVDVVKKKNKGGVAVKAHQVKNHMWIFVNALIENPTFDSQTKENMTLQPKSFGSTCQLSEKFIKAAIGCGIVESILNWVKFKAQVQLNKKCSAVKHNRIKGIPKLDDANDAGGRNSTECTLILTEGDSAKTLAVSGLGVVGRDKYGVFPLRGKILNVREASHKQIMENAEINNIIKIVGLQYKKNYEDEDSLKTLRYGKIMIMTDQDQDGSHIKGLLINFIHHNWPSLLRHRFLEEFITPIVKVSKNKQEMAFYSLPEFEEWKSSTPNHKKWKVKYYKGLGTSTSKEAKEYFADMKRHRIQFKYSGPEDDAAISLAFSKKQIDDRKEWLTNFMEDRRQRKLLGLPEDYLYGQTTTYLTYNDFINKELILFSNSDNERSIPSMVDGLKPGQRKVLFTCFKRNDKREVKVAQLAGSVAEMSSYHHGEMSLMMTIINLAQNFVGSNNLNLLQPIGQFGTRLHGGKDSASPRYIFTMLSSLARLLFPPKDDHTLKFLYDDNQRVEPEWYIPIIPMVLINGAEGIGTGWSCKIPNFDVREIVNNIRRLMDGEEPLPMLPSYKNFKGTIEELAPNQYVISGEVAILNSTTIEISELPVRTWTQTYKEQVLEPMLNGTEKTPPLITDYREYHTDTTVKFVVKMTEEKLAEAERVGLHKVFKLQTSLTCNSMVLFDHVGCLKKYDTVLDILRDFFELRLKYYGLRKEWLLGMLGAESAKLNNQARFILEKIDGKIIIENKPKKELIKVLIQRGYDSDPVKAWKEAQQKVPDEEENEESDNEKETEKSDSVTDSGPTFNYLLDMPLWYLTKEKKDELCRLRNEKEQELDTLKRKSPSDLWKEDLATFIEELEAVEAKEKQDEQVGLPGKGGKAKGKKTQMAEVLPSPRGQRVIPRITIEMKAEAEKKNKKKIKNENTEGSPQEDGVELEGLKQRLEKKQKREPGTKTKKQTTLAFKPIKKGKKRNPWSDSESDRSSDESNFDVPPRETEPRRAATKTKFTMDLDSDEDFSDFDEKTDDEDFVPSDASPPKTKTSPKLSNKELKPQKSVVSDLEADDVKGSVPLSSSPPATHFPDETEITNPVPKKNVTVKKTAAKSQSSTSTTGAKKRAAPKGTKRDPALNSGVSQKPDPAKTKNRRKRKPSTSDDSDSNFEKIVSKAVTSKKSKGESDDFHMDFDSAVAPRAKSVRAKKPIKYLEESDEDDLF
# Histone deacetylase 1 [4] = target: T2, Histone deacetylase 1; assay: Inhibition of recombinant human HDAC1 expressed in HEK293T cells at 10 uM using Ac-KGLGK(Ac)-MCA as substrate after 30 mins in presence of DTT by fluorescence assay
# [5] = target: T3, DNA topoisomerase 2-alpha; assay: Inhibition of human topoisomerase-2 alpha-mediated kinetoplast DNA decatenation at 200 uM after 30 mins by ethidium bromide staining based agarose gel electrophoresis
Compound,IC50 [1] [µM],IC50 (Histone deacetylase 1 [2]) [µM],GI50 (MCF7) [µM],GI50 (DU-145) [µM],GI50 (HCT-116) [µM],IC50 [3] [µM],also measured
Cc1cn([C@@H]2C[C@H](C3(c4ccc(NC(=O)CCCCCC(=O)NO)cc4)SCCCS3)[C@@H](CO[Si](C)(C)C(C)(C)C)O2)c(=O)[nH]c1=O,0.081,0.59,17.8,28.8,14.8,–,–
Cc1cn([C@H]2C[C@H](C3(c4ccc(NC(=O)CCCCCC(=O)NO)cc4)SCCCS3)[C@@H](CO[Si](C)(C)C(C)(C)C)O2)c(=O)[nH]c1=O,0.11,0.9,15.4,20.9,17.4,–,–
CC(C)(C)[Si](C)(C)OC[C@H]1OC(=O)C[C@@H]1C1(c2ccccc2)SCCCS1,–,–,–,–,–,26.1,–
Cc1cn([C@H]2C[C@H](C3(c4ccc(NC(=O)CCCCCCC(=O)O)cc4)SCCCS3)[C@@H](CO[Si](C)(C)C(C)(C)C)O2)c(=O)[nH]c1=O,–,–,–,–,–,–,IC50 (MCF7): 12.3 µM; IC50 (DU-145): 15.5 µM; inhibition (Histone deacetylase 1 [4]): inactive; IC50 (HCT-116): 12.3 µM
COc1cc([C@@H]2c3cc4c(cc3[C@@H](O[C@@H]3O[C@@H]5CO[C@@H](C)O[C@H]5[C@H](O)[C@H]3O)[C@H]3COC(=O)[C@H]23)OCO4)cc(OC)c1O,–,–,–,–,–,–,inhibition [5]: Active
CC(/C=C/C(=O)NO)=C\C(C)C(=O)c1ccc(C2([C@H]3CC(=O)O[C@@H]3CO[Si](C)(C)C(C)(C)C)SCCCS2)cc1 (stereo not given in full),–,1.2,–,–,–,3,–

# Further lines, with some results ahead:
IC50 [1] [µM],IC50 (Histone deacetylase 1 [2]) [µM],GI50 (MCF7) [µM],GI50 (DU-145) [µM],GI50 (HCT-116) [µM],IC50 [3] [µM],Compound,also measured
> 10,> 10,3.31,3.72,3.63,19.1,COc1ccc(C2([C@H]3C[C@H](n4cc(C)c(=O)[nH]c4=O)O[C@@H]3CO[Si](C)(C)C(C)(C)C)SCCCS2)cc1OC,–
0.56,2.5,5.5,14.8,26.3,–,Cc1cn([C@H]2C[C@H](C3(c4ccc(NC(=O)CCCCC(=O)NO)cc4)SCCCS3)[C@@H](CO[Si](C)(C)C(C)(C)C)O2)c(=O)[nH]c1=O,–
–,–,–,–,–,55.3,COc1ccc(C2([C@H]3CC(=O)O[C@@H]3CO[Si](C)(C)C(C)(C)C)SCCCS2)cc1OC,–
0.59,2.8,5.37,49,26.3,–,Cc1cn([C@@H]2C[C@H](C3(c4ccc(NC(=O)CCCCC(=O)NO)cc4)SCCCS3)[C@@H](CO[Si](C)(C)C(C)(C)C)O2)c(=O)[nH]c1=O,–

# Reference: ChEMBL document CHEMBL4219122, “Synthesis and biological evaluation of histone deacetylase and DNA topoisomerase II-Targeted inhibitors” (Bioorg Med Chem, 2018)
